Where “and” joins values, the source holds several entries; their conditions need not be identical. Equal values may be shown once.
Columns and labels:
[1] = tested on: allergic asthma in guinea pigs caused by a mixed gas of Ach and His; assay: Allergic asthma in guinea pigs caused by a mixed gas of Ach and His: latent period, total IgE in serum and BALF, EOS content in lung tissues; type: in vivo; details: for latent period of asthma, Before dosing: before dosing (baseline)
Experimental: 2.2 Effect on Allergic Asthma in Guinea Pigs Caused by a Mixed Gas of Ach and his
On day 1, guinea pigs were placed in a closed 4 L glass bell jar, into which a 1:1 mixture solution of 2% Ach and 0.4% His was sprayed by ultrasonic atomization for 15 s. After completion of spraying, the latent period of asthma induced in the guinea pigs was recorded (i.e., the period from the end of the spraying to asthmatic onsets, extreme difficulty in breathing till twitching and falling down). Animals having a latent period of asthma longer than 120 s were excluded.
Dual-antibody sandwich radioimmunoassay was employed.

[2] = tested on: allergic asthma in rats caused by OVA; assay: Allergic asthma in rats caused by OVA: latent period of asthma, serum IL-4 and IFN-γ, EOS content in lung tissues; type: in vivo, SD rats; details: dexamethasone 0.5 mg/kg; for latent period of asthma, Before dosing: before dosing (baseline)
[3] = tested on: allergic asthma in rats caused by OVA; assay: as above; type: in vivo, SD rats
Text: Rats (half thereof were male and the other half female) were randomly divided into two groups, i.e., a blank control group of 10 animals and a modeling group of 70 animals. After a successful modeling, the rats were randomly divided into the following groups: a model control group, a positive drug group (dexamethasone group), and groups on the low, medium, and high doses of Composition 3, with 10 animals in each group.
On day 1, all animals except those in the blank control group were sensitized by intraperitoneal injection with 1 ml suspension containing 10 mg OVA, 200 mg Al(OH)3 dry powder, and 6×10^9 inactivated pertussis vaccines in physiological saline, and were sensitized once again on day 8.
The daily intake of the test drug Composition 3 composite powder recommended for one person was 24 g crude drug/60 kg body weight. On the basis thereof, the calculated daily intake for a rat was: low dose group: 1.0 g crude drug/kg body weight; medium dose group: 2.0 g crude drug/kg body weight; high dose group: 6.0 g crude drug/kg body weight, which were 2.5, 5 and 15 times the daily intake for a human, respectively. […] The volume of intragastric administration was calculated as 1.0 ml/100 g body weight. The model control group was intragastrically given an equivalent volume of 0.9% physiological saline 30 minutes before challenging; and the positive drug group was given dexamethasone at a dose of 0.5 mg/kg 30 min before each challenging^[2]. The groups on the low, medium and high doses of Composition 3 were each intragastrically given the respective dose of the test drug 30 min before each challenging. […]
A ZH-100 respiratory transducer was tied around the thoracic cage of each rat (the tension was adjusted to about 1 to 2 g so that the amplitude of the respiratory wave was 1 to 2 my). […] The acquisition system was turned on and a segment of normal respiratory wave was recorded. Then ultrasonic atomization with 1% OVA was applied for 20 min, and the respiratory waves of induced asthma in the rats were continuously recorded over 30 min after the atomization was initiated. Meanwhile, the period from the beginning of atomization to occurrence of symptoms (indicated by the first twitch) was visually observed and recorded as the latent period of asthma.
24 h after the final challenge, the rats were anaesthetized by intraperitoneal injection with 3% sodium pentobarbital (30 mg/kg). 5 to 10 ml blood was drawn, and serum IL-4 and IFN-γ levels were measured by ELISA.
The left lung tissues were cut off and fixed in 4% polyformaldehyde for 4 to 5 h, then washed with water, dehydrated with an alcohol gradient, and immersed and embedded in paraffine. HE staining was performed with a successive sectioning process, inflammatory changes in the tissues were observed, and EOS infiltration was counted. For each section, 10 fields were randomly chosen under a microscope at high magnification (×400) by the same observer, and the numbers of EOS infiltration around bronchus and vessels were calculated and averaged as the representative value for this section.
The daily intake of the test drug Composition 4 composite powder recommended for one person was 24 g crude drug/60 kg body weight. On the basis thereof, the calculated daily intake for a rat was: low dose group: 1.0 g crude drug/kg body weight; medium dose group: 2.0 g crude drug/kg body weight; high dose group: 6.0 g crude drug/kg body weight, which were 2.5, 5 and 15 times the daily intake for a human, respectively.

[4] = baseline, positive control group (dexamethasone 0.5 mg/kg)
[5] = dexamethasone 0.5 mg/kg, Composition 6 study
[6] = dexamethasone 0.5 mg/kg, Composition 7 study
[7] = dexamethasone 0.5 mg/kg, Composition 5 study
[8] = positive control dexamethasone 0.5 mg/kg, 21 days

Q: How did the “total IgE in BALF” value ([1]; BALF, positive control group, 0.5 mg/kg) turn out when `C[C@@H]1C[C@H]2[C@@H]3CCC4=CC(=O)C=C[C@]4(C)[C@@]3(F)[C@@H](O)C[C@]2(C)[C@@]1(O)C(=O)CO` [dexamethasone] was run?
A: Its value is 3.62 ± 0.62^ΔΔ U/L.

Q: And the “latent period of asthma, After dosing” value ([1]; after dosing, dexamethasone 0.5 mg/kg, Composition 6 study)?
A: Its value is 155.78 ± 16.29^ΔΔ.

Q: And the “latent period of asthma, After dosing” value ([1]; after dosing, dexamethasone 0.5 mg/kg, Composition 7 study)?
A: The value was 150.46 ± 16.80^ΔΔ.

Q: What about the “latent period of asthma induced in guinea pigs, after dosing” value ([1]; after dosing, positive control group, 0.5 mg/kg) of the same compound?
A: The value was 156.77 ± 16.18^ΔΔ.

Q: And the “latent period of asthma induced, Before dosing” value [1, 4]?
A: Its value is 77.32 ± 13.95 and 75.63 ± 9.09 and 75.65 ± 9.10.

Q: What about the “latent period of asthma induced in guinea pigs, before dosing” value ([1]; before dosing (after modeling), positive control group, 0.5 mg/kg) of the same compound?
A: Its value is 74.63 ± 9.04.

Q: And the “latent period of asthma, Before dosing” value [1, 5]?
A: The value was 75.62 ± 9.10.

Q: And the “latent period of asthma, Before dosing” value [1, 6]?
A: The value was 70.68 ± 9.65.

Q: What about the “EOS content in lung tissues” value [1, 7] of the same compound?
A: The value was 30.77 ± 7.21^ΔΔ cells/HP.

Q: What about the “total IgE in BALF” value [1, 7] of the same compound?
A: The value was 3.70 ± 0.73^ΔΔ U/L.

Q: What about the “total IgE in serum” value [1, 7] of the same compound?
A: The value was 3.74 ± 1.32^ΔΔ U/L.

Q: And the “EOS content in lung tissues” value [1, 5]?
A: The value was 30.80 ± 7.23^ΔΔ cells/HP.

Q: And the “total IgE in BALF” value [1, 5]?
A: Its value is 3.71 ± 0.70^ΔΔ U/L.

Q: What about the “total IgE in serum” value [1, 5] of the same compound?
A: Its value is 3.74 ± 1.30^ΔΔ U/L.

Q: And the “EOS content in lung tissues” value [1, 6]?
A: Its value is 31.70 ± 9.52^ΔΔ cells/HP.

Q: And the “total IgE in BALF” value [1, 6]?
A: Its value is 3.50 ± 0.78^ΔΔ U/L.

Q: What about the “total IgE in serum” value [1, 6] of the same compound?
A: The value was 3.70 ± 1.26^ΔΔ U/L.

Q: And the “EOS content in guinea pigs' lung tissues” value ([1]; lung tissues, positive control group, 0.5 mg/kg)?
A: The value was 30.69 ± 7.35^ΔΔ cells/HP.

Q: What about the “EOS content in lung tissues” value [1, 8] of the same compound?
A: The value was 31.78 ± 7.55^ΔΔ cells/HP and 30.79 ± 7.25^ΔΔ cells/HP.

Q: And the “latent period of asthma induced, After dosing” value [1, 8]?
A: The value was 160.92 ± 19.72^ΔΔ and 155.77 ± 16.28^ΔΔ and 155.78 ± 16.24^ΔΔ.

Q: What about the “total IgE in BALF” value [1, 8] of the same compound?
A: Its value is 3.49 ± 0.82^ΔΔ U/L and 3.72 ± 0.72^ΔΔ U/L.

Q: And the “total IgE in serum” value [1, 8]?
A: Its value is 3.58 ± 1.19^ΔΔ U/L and 3.75 ± 1.31^ΔΔ U/L.

Q: And the “total IgE in serum” value ([1]; serum, positive control group, 0.5 mg/kg)?
A: Its value is 3.65 ± 1.21^ΔΔ U/L.

Q: And the “latent period of asthma, After dosing” value ([2]; Composition 6 study)?
A: Its value is 159.78 ± 20.27^ΔΔ.

Q: And the “latent period of asthma, After dosing” value ([2]; Composition 7 study)?
A: The value was 156.30 ± 21.44^ΔΔ.

Q: What about the “latent period of asthma, After dosing” value ([2]; Composition 8 study) of the same compound?
A: The value was 159.87 ± 20.38^ΔΔ.

Q: And the “latent period of asthma, Before dosing” value ([2]; Composition 6 study)?
A: The value was 74.67 ± 11.10.

Q: What about the “latent period of asthma, Before dosing” value ([2]; Composition 7 study) of the same compound?
A: The value was 72.88 ± 10.96.

Q: What about the “latent period of asthma, Before dosing” value ([2]; Composition 8 study) of the same compound?
A: The value was 73.66 ± 11.19.

Q: What about the “EOS content in lung tissues” value ([2]; Composition 6 study) of the same compound?
A: The value was 28.40 ± 4.25^ΔΔ cells/HP.

Q: And the “IFN-γ (serum)” value ([2]; Composition 6 study)?
A: The value was 20.27 ± 4.89^ΔΔ pg/ml.

Q: What about the “IL-4 (serum)” value ([2]; Composition 6 study) of the same compound?
A: The value was 13.50 ± 4.32^ΔΔ pg/ml.

Q: And the “EOS content in lung tissues” value ([2]; Composition 7 study)?
A: The value was 35.64 ± 6.18^ΔΔ cells/HP.

Q: What about the “IFN-γ (serum)” value ([2]; Composition 7 study) of the same compound?
A: Its value is 19.29 ± 4.04^ΔΔ pg/ml.

Q: What about the “IL-4 (serum)” value ([2]; Composition 7 study) of the same compound?
A: Its value is 12.90 ± 4.67^ΔΔ pg/ml.

Q: What about the “EOS content in lung tissues” value ([2]; Composition 8 study) of the same compound?
A: Its value is 28.39 ± 4.26^ΔΔ cells/HP.

Q: And the “IFN-γ (serum)” value ([2]; Composition 8 study)?
A: The value was 20.16 ± 4.96^ΔΔ pg/ml.

Q: And the “IL-4 (serum)” value ([2]; Composition 8 study)?
A: Its value is 13.41 ± 4.21^ΔΔ pg/ml.

Q: What about the “latent period of asthma induced, Before dosing” value [3, 4] of the same compound?
A: The value was 75.84 ± 12.36 and 74.66 ± 11.09 and 74.64 ± 11.03.

Q: What about the “latent period of asthma induced, After dosing” value ([3]; positive control dexamethasone 0.5 mg/kg 30 min before each challenge, 21 days) of the same compound?
A: Its value is 162.61 ± 17.88^ΔΔ and 159.77 ± 20.28^ΔΔ and 160.21 ± 20.32^ΔΔ.

Q: What about the “EOS content in lung tissues” value [3, 8] of the same compound?
A: The value was 27.51 ± 4.31^ΔΔ cells/HP and 28.39 ± 4.26^ΔΔ cells/HP and 28.42 ± 4.24^ΔΔ cells/HP.

Q: And the “serum IFN-γ” value [3, 8]?
A: Its value is 20.51 ± 4.65^ΔΔ pg/ml and 20.26 ± 4.86^ΔΔ pg/ml and 20.27 ± 4.88^ΔΔ pg/ml.

Q: And the “serum IL-4” value [3, 8]?
A: Its value is 12.88 ± 4.13^ΔΔ pg/ml and 13.51 ± 4.31^ΔΔ pg/ml and 13.50 ± 4.28^ΔΔ pg/ml.

Reference: patent US10086030B2, “Use of composition in preparing health care products or medicines for preventing and treating allergic diseases” (JIANGZHONG PHARMACEUTICAL CO., LTD., priority 2012, dated 2018)
